Reference: patent publication US5326883A, “Oxime ether derivatives having lipoxygenase inhibitory activity” (Abbott Laboratories, priority 1992, dated 1994)

Columns and labels:
5-Lipoxygenase = biological target: T1, 5-Lipoxygenase (Homo sapiens, UniProt P09917); assay: Calcium ionophore-induced LTB4 biosynthesis in human whole blood (5-lipoxygenase inhibition); type: cell-based; details: human heparinized whole blood; 15 min preincubation at 37° C; A23187 8.3 μM, 30 min; LTB4 by radioimmunoassay
T1 construct: Human heparinized whole blood was preincubated with test compounds or vehicle for 15 min; endogenous in cells; host or cells: human heparinized whole blood (blood leukocytes)
T1 sequence (P09917 1-674): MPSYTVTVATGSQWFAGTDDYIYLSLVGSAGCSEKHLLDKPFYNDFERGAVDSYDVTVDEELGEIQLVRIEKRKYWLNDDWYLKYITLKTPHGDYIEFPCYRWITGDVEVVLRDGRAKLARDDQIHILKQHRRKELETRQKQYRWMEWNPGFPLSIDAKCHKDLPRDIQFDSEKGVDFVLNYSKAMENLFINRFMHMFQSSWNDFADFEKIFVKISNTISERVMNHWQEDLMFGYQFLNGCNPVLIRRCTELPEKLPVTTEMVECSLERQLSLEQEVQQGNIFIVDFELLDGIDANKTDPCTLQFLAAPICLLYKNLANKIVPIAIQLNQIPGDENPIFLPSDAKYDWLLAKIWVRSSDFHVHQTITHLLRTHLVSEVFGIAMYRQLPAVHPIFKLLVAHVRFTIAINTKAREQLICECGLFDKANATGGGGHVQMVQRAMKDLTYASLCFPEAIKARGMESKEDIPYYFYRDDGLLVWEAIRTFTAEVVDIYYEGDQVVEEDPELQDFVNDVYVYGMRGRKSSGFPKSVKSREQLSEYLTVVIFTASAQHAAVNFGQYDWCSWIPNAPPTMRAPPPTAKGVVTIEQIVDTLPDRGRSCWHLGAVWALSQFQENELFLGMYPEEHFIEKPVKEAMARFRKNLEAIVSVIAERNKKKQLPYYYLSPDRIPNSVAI
Protocol: Inhibition of leukotriene biosynthesis was evaluated in an assay, involving calcium ionophore-induced LTB4 biosynthesis expressed human whole blood. […] The methanol extract was analyzed for LTB4 using a commercially available radioimmunoassay. |In Vitro Inhibitory Potencies of Compounds of this Invention […] |in Human Whole Blood

[1] = system: biosynthesis of leukotrienes; assay: Inhibition of leukotriene biosynthesis in vivo, rat peritoneal anaphylaxis model, oral; details: Oral Dose at 30 μmol/kg, gavage one hour prior to antigen challenge; rat peritoneal fluid 15 min after challenge
Protocol: Inhibition of the biosynthesis of leuktrienes in vivo after oral administration of compound was determined using a rat peritoneal anaphylaxis model in a similar manner as that described by Young and coworkers (Young, P. R.; Dyer, R. D.; Carter, G. W. Fed. Proc., Fed. Am. Soc. Exp. Biol. 1985, 44, 1185). In this model rats were injected intraperitoneally (ip) with rabbit antibody to bovine serum albumin (BSA) and three hours later injected ip with BSA to induce an antgen-antibody response. Rats were sacrificed 15 minutes after this challenge and the peritoneal fluids were collected and analyzed for leukotriene levels. Test compounds were administered by gavage one hour prior to the antigen challenge. Percent inhibition values were determined by comparing the treatment group to the mean of the control group.

| Structure (SMILES) | IC50 (5-Lipoxygenase) [nM] | % Inhibition of Leukotrienes [1] [%] |
| --- | --- | --- |
| CC(=NOCCN(O)C(N)=O)c1cc2ccccc2s1 [Example 1, 1-(benzo[b]thien-2-yl)ethyloximyl-O-2-ethyl-N-hydroxyurea] | 100 |  |
| CCCCCC=NOCCN(O)C(N)=O [Example 2, hexyloximyl-O-2-ethyl-N-hydroxyurea] | 100 |  |
| NC(=O)N(O)CCON=Cc1cccn1Cc1ccc(Cl)cc1 [Example 3, 1-(4-chlorobenzyl)-pyrro-2-ylmethyloximyl-O-2-ethyl-N-hydroxyurea] | 160 |  |
| NC(=O)N(O)CCON=Cc1cccc(Oc2ccc(F)cc2)c1 [Example 4, 3-(4-fluorophenoxy)phenylmethyloximyl-O-2-ethyl-N-hydroxyurea] | 100 |  |
| CC(CO/N=C\c1ccc(Oc2ccc(F)cc2)o1)N(O)C(N)=O (stereo not shown) [Example 6, 5-(4-fluorophenoxy)fur-2-ylmethyl-Z-oximyl-O-2-(1-methyl)ethyl-N-hydroxyurea] |  | 70 |
| CC(CO/N=C/c1ccc(Oc2ccc(F)cc2)o1)N(O)C(N)=O (stereo not shown) [Example 7, 5-(4-fluorophenoxy)fur-2-ylmethyl-E-oximyl-O-2-(1-methyl)ethyl-N-hydroxyurea] |  | 56 |
| CC(CN(O)C(N)=O)O/N=C/c1ccc(Oc2ccc(F)cc2)o1 (stereo not shown) [Example 8, 5-(4-fluorophenoxy)fur-2-ylmethyl-E-oximyl-O-2-(2-methyl)ethyl-N-hydroxyurea] | 140 |  |
| CC(CN(O)C(N)=O)O/N=C\c1ccc(Oc2ccc(F)cc2)o1 (stereo not shown) [Example 9, 5-(4-fluorophenoxy)fur-2-ylmethyl-Z-oximyl-O-2-(2-methyl)ethyl-N-hydroxyurea] | 100 | 64 |
| NC(=O)N(O)CCON=Cc1ccc(Sc2ccccc2)o1 [Example 10, 5-(phenylthio)fur-2-ylmethyloximyl-O-2-ethyl-N-hydroxyurea] | 100 |  |
